In the assay the target is T1, human glucagon-like peptide 1 receptor (GLP-1R) (Homo sapiens, UniProt P43220).
T1 construct: expressed in transfected cells
Kind of assay: GLP-1 receptor efficacy assay (cAMP AlphaScreen, CHO cells). The assay is classed as cell-based. Particulars: for EC50: cAMP formation, CHO cells expressing human GLP-1-R, read-out: EC50 hGLP-1R CHO-K1; for Ratio GLP-1/Glucagon: EC50 [GLP-1R] / EC50 [Glucagon-R], human receptors in CHO-K1. The method, then:
The mammalian expression vectors encoding the Glucagon-R or the GLP-1-R were transfected into Chinese hamster ovary (CHO) cells by the Attractene method. Stably expressing clones were obtained by Zeocin selection (250 μg/mL) upon limited dilution of cells resistant to the selection pressure. […] One Glucagon-R expressing clone and one GLP-1-R expressing clone were chosen for compound profiling.
CHO cells expressing the human Glucagon-R, or human GLP-1-R were seeded 24 hours prior to the assay at 30,000 cells per well in 96-well microtiter plates in culture in 100 μl growth medium. On the day of analysis, growth medium was removed and the cells were washed once with 200 μl of assay buffer (Krebs-Ringer-buffer—KRBH). The buffer was removed and the cells were incubated for 15 min at room temperature in 10 μl KRBH (KRBH+10 mM HEPES, 5 mM NaHCO3, 0.1% (V/V) BSA) with 0.1 mM IBMX in deionized water containing increasing concentrations of test peptides. The reaction was stopped by the addition of lysis buffer (0.1% w/v BSA, 5 mM HEPES, 0.3% v/v Tween-20). After cell lysis for 10 min at room temperature, lysates were transferred to 384-well plates and 10 μl of acceptor/donorbead mixture as contained in the AlphaScreen™ cAMP Functional Assay Kit was added. After one hour of incubation at room temperature in the dark, the cAMP content was determined applying the AlphaScreen™ cAMP Functional Assay Kit from Perkin-Elmer according to manufacturer instructions. […] The GLP-1/glucagon ratio is calculated as defined earlier.
Background: Alpha assays give light when donor and acceptor beads are brought close together.

Starred links: 1 amine or outer side, 2 acyl side, 3 side chain; linkers in the order of their positions; H or OH if unused. Non-standard residues stand in square brackets, D forms with d. Residues, ends and D or L forms follow the SMILES beside them. Groups on a side chain read outwards from the residue. *: point of attachment. γGlu = O=C(O)[C@H](CCC(=O)[*:2])N[*:1]; Palmitoyl = CCCCCCCCCCCCCCCC(=O)*; Ac3c = NC1(C(=O)O)CC1

T1 sequence (P43220 24-463): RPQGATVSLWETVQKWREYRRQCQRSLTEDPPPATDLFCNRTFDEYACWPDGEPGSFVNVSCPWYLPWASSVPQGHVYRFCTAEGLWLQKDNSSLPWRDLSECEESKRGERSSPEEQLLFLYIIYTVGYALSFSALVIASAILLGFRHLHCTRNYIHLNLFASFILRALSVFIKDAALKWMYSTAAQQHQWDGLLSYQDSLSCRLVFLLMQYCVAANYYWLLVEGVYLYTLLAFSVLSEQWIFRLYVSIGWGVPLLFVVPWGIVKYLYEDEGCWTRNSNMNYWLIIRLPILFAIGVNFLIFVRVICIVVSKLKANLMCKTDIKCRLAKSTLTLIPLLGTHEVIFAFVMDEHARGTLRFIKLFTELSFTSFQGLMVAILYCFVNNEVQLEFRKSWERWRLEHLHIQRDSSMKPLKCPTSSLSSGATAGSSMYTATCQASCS

With `CCCCCCCCCCCCCCCC(=O)N[C@@H](CCC(=O)NCCCC[C@H](NC(=O)[C@H](CCC(=O)O)NC(=O)[C@H](CC(=O)O)NC(=O)[C@H](CC(C)C)NC(=O)[C@H](Cc1ccc(O)cc1)NC(=O)[C@H](CCCCN)NC(=O)[C@H](CO)NC(=O)[C@H](Cc1ccc(O)cc1)NC(=O)[C@H](CC(=O)O)NC(=O)[C@H](CO)NC(=O)[C@@H](NC(=O)[C@H](Cc1ccccc1)NC(=O)[C@@H](NC(=O)CNC(=O)[C@H](CCC(N)=O)NC(=O)[C@@H](C)NC(=O)[C@@H](N)Cc1c[nH]cn1)[C@@H](C)O)[C@@H](C)O)C(=O)N[C@@H](C)C(=O)N[C@@H](C)C(=O)N[C@@H](CCCCN)C(=O)N[C@@H](CC(=O)O)C(=O)N[C@@H](Cc1ccccc1)C(=O)N[C@H](C(=O)N[C@@H](CCC(=O)O)C(=O)N[C@@H](Cc1c[nH]c2ccccc12)C(=O)N[C@@H](CC(C)C)C(=O)N[C@@H](CCC(=O)O)C(=O)N[C@@H](CO)C(=O)N[C@@H](C)C(N)=O)[C@@H](C)CC)C(=O)O` [Compound 12], the concentration for a half-maximal effect (EC50) is 0.14 nM.

With `CCCCCCCCCCCCCCCC(=O)N[C@@H](CCC(=O)NCCCC[C@H](NC(=O)[C@H](CO)NC(=O)[C@H](CC(=O)O)NC(=O)[C@H](CC(C)C)NC(=O)[C@H](Cc1ccc(O)cc1)NC(=O)[C@H](CCCCN)NC(=O)[C@H](CO)NC(=O)[C@H](Cc1ccc(O)cc1)NC(=O)[C@H](CC(=O)O)NC(=O)[C@H](CO)NC(=O)[C@@H](NC(=O)[C@H](Cc1ccccc1)NC(=O)[C@@H](NC(=O)CNC(=O)[C@H](Cc1c[nH]cn1)NC(=O)C1(NC(=O)[C@@H](N)Cc2c[nH]cn2)CC1)[C@@H](C)O)[C@@H](C)O)C(=O)N[C@@H](C)C(=O)N[C@@H](C)C(=O)N[C@@H](Cc1c[nH]cn1)C(=O)N[C@@H](CC(=O)O)C(=O)N[C@@H](Cc1ccccc1)C(=O)N[C@H](C(=O)N[C@@H](CCC(=O)O)C(=O)N[C@@H](Cc1c[nH]c2ccccc12)C(=O)N[C@@H](CC(C)C)C(=O)N[C@@H](CC(C)C)C(=O)N[C@@H](CO)C(=O)N[C@@H](C)C(N)=O)C(C)C)C(=O)O` [Compound 8] (H-H[Ac3c]HGTFTSDYSKYLDSK([γGlu-Palmitoyl])AAHDFVEWLLSA-NH2), the “Ratio GLP-1/Glucagon” value stood at 0.13.

In the case of `CCCCCCCCCCCCCCCC(=O)N[C@@H](CCC(=O)NCCCC[C@H](NC(=O)[C@H](CCC(=O)O)NC(=O)[C@H](CC(=O)O)NC(=O)[C@H](CC(C)C)NC(=O)[C@H](Cc1ccc(O)cc1)NC(=O)[C@H](CCCCN)NC(=O)[C@H](CO)NC(=O)[C@H](Cc1ccc(O)cc1)NC(=O)[C@H](CC(=O)O)NC(=O)[C@H](CO)NC(=O)[C@@H](NC(=O)[C@H](Cc1ccccc1)NC(=O)[C@@H](NC(=O)CNC(=O)[C@H](CCC(N)=O)NC(=O)[C@@H]1CCCN1C(=O)[C@@H](N)Cc1c[nH]cn1)[C@@H](C)O)[C@@H](C)O)C(=O)N[C@@H](C)C(=O)N[C@@H](C)C(=O)N[C@@H](CCCCN)C(=O)N[C@@H](CC(=O)O)C(=O)N[C@@H](Cc1ccccc1)C(=O)N[C@H](C(=O)N[C@@H](CCC(=O)O)C(=O)N[C@@H](Cc1c[nH]c2ccccc12)C(=O)N[C@@H](CC(C)C)C(=O)N[C@@H](CCC(=O)O)C(=O)N[C@@H](CO)C(=O)N[C@@H](C)C(N)=O)[C@@H](C)CC)C(=O)O` [Compound 13], the “Ratio GLP-1/Glucagon” value is 0.07.

`CCCCCCCCCCCCCCCC(=O)N[C@@H](CCC(=O)NCCCC[C@H](NC(=O)[C@H](CO)NC(=O)[C@H](CC(=O)O)NC(=O)[C@H](CC(C)C)NC(=O)[C@H](Cc1ccc(O)cc1)NC(=O)[C@H](CCCCN)NC(=O)[C@H](CO)NC(=O)[C@H](Cc1ccc(O)cc1)NC(=O)[C@H](CC(=O)O)NC(=O)[C@H](CO)NC(=O)[C@@H](NC(=O)[C@H](Cc1ccccc1)NC(=O)[C@@H](NC(=O)CNC(=O)[C@H](Cc1c[nH]cn1)NC(=O)[C@@H](C)NC(=O)[C@@H](N)Cc1c[nH]cn1)[C@@H](C)O)[C@@H](C)O)C(=O)N[C@@H](C)C(=O)N[C@@H](C)C(=O)N[C@@H](Cc1c[nH]cn1)C(=O)N[C@@H](CC(=O)O)C(=O)N[C@@H](Cc1ccccc1)C(=O)N[C@H](C(=O)N[C@@H](CCC(=O)O)C(=O)N[C@@H](Cc1c[nH]c2ccccc12)C(=O)N[C@@H](CC(C)C)C(=O)N[C@@H](CC(C)C)C(=O)N[C@@H](CO)C(=O)N[C@@H](C)C(N)=O)C(C)C)C(=O)O` [Compound 7] (H-H[dA]HGTFTSDYSKYLDSK([γGlu-Palmitoyl])AAHDFVEWLLSA-NH2): the “Ratio GLP-1/Glucagon” value was 0.58.

`CCCCCCCCCCCCCCCC(=O)N[C@@H](CCC(=O)NCCCC[C@H](NC(=O)[C@H](CCC(=O)O)NC(=O)[C@H](CC(=O)O)NC(=O)[C@H](CC(C)C)NC(=O)[C@H](Cc1ccc(O)cc1)NC(=O)[C@H](CCCCN)NC(=O)[C@H](CO)NC(=O)[C@H](Cc1ccc(O)cc1)NC(=O)[C@H](CC(=O)O)NC(=O)[C@H](CO)NC(=O)[C@@H](NC(=O)[C@H](Cc1ccccc1)NC(=O)[C@@H](NC(=O)CNC(=O)[C@H](CCC(N)=O)NC(=O)C1(NC(=O)[C@@H](N)Cc2c[nH]cn2)CCC1)[C@@H](C)O)[C@@H](C)O)C(=O)N[C@@H](C)C(=O)N[C@@H](C)C(=O)N[C@@H](CCCCN)C(=O)N[C@@H](CC(=O)O)C(=O)N[C@@H](Cc1ccccc1)C(=O)N[C@H](C(=O)N[C@@H](CCC(=O)O)C(=O)N[C@@H](Cc1c[nH]c2ccccc12)C(=O)N[C@@H](CC(C)C)C(=O)N[C@@H](CCC(=O)O)C(=O)N[C@@H](CO)C(=O)N[C@@H](C)C(N)=O)[C@@H](C)CC)C(=O)O` [Compound 14]: the “Ratio GLP-1/Glucagon” value came out at 0.04.

As to `CCCCCCCCCCCCCCCC(=O)N[C@@H](CCC(=O)NCCCC[C@H](NC(=O)[C@H](CCC(=O)O)NC(=O)[C@H](CC(=O)O)NC(=O)[C@H](CC(C)C)NC(=O)[C@H](Cc1ccc(O)cc1)NC(=O)[C@H](CCCCN)NC(=O)[C@H](CO)NC(=O)[C@H](Cc1ccc(O)cc1)NC(=O)[C@H](CC(=O)O)NC(=O)[C@H](CO)NC(=O)[C@@H](NC(=O)[C@H](Cc1ccccc1)NC(=O)[C@@H](NC(=O)CNC(=O)[C@H](CCC(N)=O)NC(=O)[C@H](C)NC(=O)[C@@H](N)Cc1c[nH]cn1)[C@@H](C)O)[C@@H](C)O)C(=O)N[C@@H](C)C(=O)N[C@@H](C)C(=O)N[C@@H](CCCCN)C(=O)N[C@@H](CC(=O)O)C(=O)N[C@@H](Cc1ccccc1)C(=O)N[C@H](C(=O)N[C@@H](CCC(=O)O)C(=O)N[C@@H](Cc1c[nH]c2ccccc12)C(=O)N[C@@H](CC(C)C)C(=O)N[C@@H](CCC(=O)O)C(=O)N[C@@H](CO)C(=O)N[C@@H](C)C(N)=O)[C@@H](C)CC)C(=O)O` [Compound 11], the EC50 amounted to 0.14 nM.

Take `CCCCCCCCCCCCCCCC(=O)N[C@@H](CCC(=O)NCCCC[C@H](NC(=O)[C@H](CO)NC(=O)[C@H](CC(=O)O)NC(=O)[C@H](CC(C)C)NC(=O)[C@H](Cc1ccc(O)cc1)NC(=O)[C@H](CCCCN)NC(=O)[C@H](CO)NC(=O)[C@H](Cc1ccc(O)cc1)NC(=O)[C@H](CC(=O)O)NC(=O)[C@H](CO)NC(=O)[C@@H](NC(=O)[C@H](Cc1ccccc1)NC(=O)[C@@H](NC(=O)CNC(=O)[C@H](CCC(N)=O)NC(=O)[C@H](C)NC(=O)[C@@H](N)Cc1c[nH]cn1)[C@@H](C)O)[C@@H](C)O)C(=O)N[C@@H](C)C(=O)N[C@@H](C)C(=O)N[C@@H](Cc1c[nH]cn1)C(=O)N[C@@H](CC(=O)O)C(=O)N[C@@H](Cc1ccccc1)C(=O)N[C@H](C(=O)N[C@@H](CCC(=O)O)C(=O)N[C@@H](Cc1c[nH]c2ccccc12)C(=O)N[C@@H](CC(C)C)C(=O)N[C@@H](CC(C)C)C(=O)N[C@@H](CO)C(=O)N[C@@H](C)C(N)=O)C(C)C)C(=O)O` [Compound 1]: the “Ratio GLP-1/Glucagon” value is reported as 2.26.

For the molecule `CCCCCCCCCCCCCCCC(=O)N[C@@H](CCC(=O)NCCCC[C@H](NC(=O)[C@H](CO)NC(=O)[C@H](CC(=O)O)NC(=O)[C@H](CC(C)C)NC(=O)[C@H](Cc1ccc(O)cc1)NC(=O)[C@H](CCCCN)NC(=O)[C@H](CO)NC(=O)[C@H](Cc1ccc(O)cc1)NC(=O)[C@H](CC(=O)O)NC(=O)[C@H](CO)NC(=O)[C@@H](NC(=O)[C@H](Cc1ccccc1)NC(=O)[C@@H](NC(=O)CNC(=O)[C@H](CCC(N)=O)NC(=O)[C@H](CO)N(C)C(=O)[C@@H](N)Cc1c[nH]cn1)[C@@H](C)O)[C@@H](C)O)C(=O)N[C@@H](C)C(=O)N[C@@H](C)C(=O)N[C@@H](Cc1c[nH]cn1)C(=O)N[C@@H](CC(=O)O)C(=O)N[C@@H](Cc1ccccc1)C(=O)N[C@H](C(=O)N[C@@H](CCC(=O)O)C(=O)N[C@@H](Cc1c[nH]c2ccccc12)C(=O)N[C@@H](CC(C)C)C(=O)N[C@@H](CC(C)C)C(=O)N[C@@H](CO)C(=O)N[C@@H](C)C(N)=O)C(C)C)C(=O)O` [Compound 2], the “Ratio GLP-1/Glucagon” value was 3.83.

Broadly, the EC50 is the midpoint of the concentration-response curve.
